Assay results taken from US9951010B2, “Compounds as CRTH2 antagonist and uses thereof” (SUNSHINE LAKE PHARMA CO., LTD., priority 2014, dated 2018).
Where a name gives a salt, the structure may show the parent alone.

Legend:
[1] = test system: eosinophilia in airway of Wistar rats induced by DK-PGD2; experiment: Eosinophilia in airway of Wistar rats induced by DK-PGD2, cell count in BALF; format: in vivo; set-up: The total number of white blood cells: unit not given here; details: for Eosinophilic granulocyte C (10^5/ml) / Eosinophilic granulocyte Inhibition rate / The total number of white blood cells: Wistar rats, 10 mg/Kg preventive dose 0.5 h before DK-PGD2, BALF after 24 h; for inhibitory effects on the total number of white blood cells and the number of eosinophilic granulocytes: Wistar rats induced by DK-PGD2, compared with OC000459
Procedure: Purpose: evaluation of inhibitory effects of the compounds on the total number of white blood cells and eosinophilia in airway of Wistar rats induced by DK-PGD2.
Process: observation on the drug therapeutic effect through preventive medication. Specific operation: After 0.5 h of administering a preventive dose, the administered group and model group were induced eosinophilia with 100 μL of DK-PGD2 by spray injection through airway of rats, the blank group was spray injected with a corresponding dose of normal saline; after 24 h of molding, the rats were killed by bloodletting from aorta abdominalis, exposing the airway and the chest, performing the trachea cannula, and the bronchial pulmonary alveoli were lavaged with 8 mL of 1% BSA in PBS in twice, the bronchoalveolar lavage fluids (BALF) were collected and placed in an ice-bath; after smear, the cells were differential counted. The concentration of DK-PGD2 mother liquor was 10 mg/mL, which was diluted 5 folds to get 2 mg/mL.

[2] = Hygroscopicity test by dynamic vapor sorption; format: physicochemical; details: DVS, 25° C.
Procedure: The hygroscopicity disclosed herein is detected on a DVS INT-Std dynamic vapor and gas absorption analyzer (England Surface Measurement Systems Company) under the humidity ranged from 0% to 95%, the airflow rate is 200 mL/min, the temperature is 25° C., and one test point is provided per rising 5% humidity.
An appropriate amount of test sample was sampled, and the hygroscopicity of the test sample was detected on a dynamic vapor sorption instrument. The experiment results are as shown in table 7; the dynamic vapor sorption profiles of the crystalline form I of the compound represented by Formula (VI) is substantial the same as shown in FIG. 19.
The hygroscopic features and definition of hygroscopic weight gain are summarized in table 8 (deriving from Chinese Pharmacopoeia 2010, appendix XIX J: Guideline on pharmaceutical hygroscopicity test, test conditions: 25° C.±1° C., Relative Humidity 80%).

CRTH2 receptor = biological target: T1, CRTH2 receptor (Homo sapiens, UniProt Q9Y5Y4); experiment: FLIPR detection of inhibitory activity against CRTH2 (CHO-K1/G cells, PGD2 as agonist); format: cell-based; details: CHO-K1/G cells with stable expression of CRTH2 receptor, PGD2 at EC80, FLIPR
T1 construct: expressed in transfected cells; host or cells: CHO-K1/G cells
T1 sequence (Q9Y5Y4 1-395): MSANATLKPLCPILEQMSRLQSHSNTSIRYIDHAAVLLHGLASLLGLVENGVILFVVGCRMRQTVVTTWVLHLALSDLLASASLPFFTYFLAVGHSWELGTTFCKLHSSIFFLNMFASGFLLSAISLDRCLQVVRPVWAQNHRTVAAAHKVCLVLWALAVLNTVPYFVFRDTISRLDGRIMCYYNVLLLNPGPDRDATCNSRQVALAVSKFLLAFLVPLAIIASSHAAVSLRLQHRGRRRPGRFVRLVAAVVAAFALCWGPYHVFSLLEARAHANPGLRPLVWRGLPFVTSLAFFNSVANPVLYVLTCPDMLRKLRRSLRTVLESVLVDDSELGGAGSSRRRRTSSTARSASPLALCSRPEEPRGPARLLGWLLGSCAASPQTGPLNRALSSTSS
Procedure: The test compound was weighed accurately and then dissolved in a suitable amount of DMSO to prepare a stock solution at a concentration of 10 mM; after clear and transparent, the stock solution was subpackaged and cryostoraged at −20° C. for use. Before testing, the test compound was diluted with balanced salt solution (HBSS buffer, containing 4-(2-hydroxyethyl)piperazine-1-ethanesulfonicacid) at a concentration of 20 mM) to 5 times testing concentration.
CHO-K1/G cells with stable expression of CRTH2 receptor were prepared to 5 times testing concentration and seeded into 384-microwell plate, and incubated in an incubator at 37° C./5% CO2. After incubating for 18 hours, to the cells in 384-microwell plate was added 20 μL of dye followed by the addition of 10 μL of prepared test compound solution. And then the cell plate was incubated in the incubator at 37° C./5% CO2 for 1 hour, at last which was balanced at rt for 15 min. After adding 12.5 μL of positive agonist (PGD2) at a concentration of 5 times EC80 to each well of the cell plate, the RFU (fluorescence intensity) value of the test compound was detected.
The data were recorded from ScreenWorks (version 3.1), and collected and analyzed by using Excel and GraphPad Prism 6 software to calculate the values of IC50.

Detection of PK in rats = format: in vivo; details: rat, plasma
Procedure: (§1) The analysis was performed using a 4000 QTRAPP series LC/MS/MS mass spectrometer equipped with Agilent 1200 dual injection pumps, 1290 automatic sampler, column oven and ESI source, detecting by the negative ion MRM mode. Waters Xbridge C18 column was used in the analysis, and the mobile phase consisted of phase (A) (2 mM ammonium formate+0.1% aqueous ammonia solution) and phase (B) (2 mM ammonium formate+0.1% ammonia methanol solution), the flow rate was 0.4 mL/min, column temperature was 40° C., the amount of injection was 3 μL.
(§2) The male Beagle dogs or rats were administered with the compound of the invention by intravenous injection (0.4 mg/Kg) and gavage (1 mg/Kg) respectively, the blood samples were collected at the time point of 0.083, 0.25, 0.5, 1, 2, 4, 6, 8, 10, 24 and 36 h and then centrifuged to obtain plasma samples. The compound concentrations in plasma samples at various times were detected by LC/MS/MS (the method described in biologic example 3), the main pharmacokinetic parameters were calculated, and pharmacokinetic properties of the compounds of the invention in Beagle dogs or rats were evaluated.

[3] = Metabolic stability in rat liver microsomal; format: in vitro ADME; details: liver microsomes, pH 7.4, 37° C.
Procedure: as §1
(§3) A mixture of the compound and human liver microsomal, a mixture of the compound and dog liver microsomal, or a mixture of the compound and rat liver microsomal were separately incubated at 37° C., under a condition of pH7.4. The sample concentrations at various incubative times were detected by LC/MS/MS (the method described in biologic example 3), speed constant was obtained by plotting “Log [drug concentration]” to “incubative time” in GraphPad Prism 5.01, and the drug half-life and intrinsic clearance rate were calculated; metabolic stability of the compound in liver microsomal were evaluated based on the drug half-life and intrinsic clearance rate.

[4] = Metabolic stability in dog liver microsomal; format: in vitro ADME; details: liver microsomes, pH 7.4, 37° C.
Procedure: as §1, §3

[5] = test system: OVA (ovalbumin)-induced asthmatic model in rats; experiment: OVA (ovalbumin)-induced asthmatic model in rats, count of white blood cells in lung lavage; format: in vivo; details: OVA-sensitized rats, gavage once a day for three days, lung lavage solution
Procedure: The experiment purpose was to assess the drug efficacy of the test compound in OVA (ovalbumin)-induced asthmatic model in rats.
Grouping the animal randomly to control group, model group and administered group. At the first, second and third day, the control group was administered with 1 mL of PBS (phosphate buffer solution) by intraperitoneal injection, and the model group and administered group were administered with a sensitization solution (prepared by mixing 6 mL of 1% OVA in phosphate buffer solution and 54 mL of alum solution at a ratio of 1:9) by intraperitoneal injection per day (1 mL per rat).
From the nineteenth day, the administered group was administered with the test compound at a certain dose by gavage, and the control group and model group was administered with the menstruum at a corresponding dose by gavage, once a day for three days. After 1 hour of administering each day, attacking the model group and administered group with 1% OVA in phosphate buffer solution and the control group with phosphate buffer solution for 20 min.
At the twenty-third day, the animals were anesthetized with 1% pentobarbital sodium (60 mg/Kg) by intraperitoneal injection. The blood samples were collected from aorta abdominalis under pentobarbital sodium anaesthesia into EDTA-K2 tubes. After tracheal intubation was performed, the lung of the animals were lavaged with 3 mL of PBS containing 1% FBS (Fetal Bovine Serum) once, and then lavaged with 5 mL of PBS containing 1% FBS at least two times; the volume of the combined lavage solutions were adjusted to 15 mL. The total cells in the lavage solution were counted by using a hemacytometer and a Trypan blue staining method and then white blood cells in the lavage solution were counted differentially.

[6] = Detection of PK in Beagle dogs; format: in vivo; details: male, dog, plasma
Procedure: as §1, §2

[7] = Metabolic stability in human liver microsomal; format: in vitro ADME; details: liver microsomes, pH 7.4, 37° C.
Procedure: as §1, §3

[8] = pH7.4, intrinsic clearance, read-out: Clearance rate
[9] = pH7.4, read-out: Drug half-life

Compound	IC50 (CRTH2 receptor)	AUC(0-inf) (Detection of PK in rats; iv, 0.4 mg/Kg)	AUC(0-t) (Detection of PK in rats; iv, 0.4 mg/Kg)	Cmax (Detection of PK in rats; iv, 0.4 mg/Kg)	half-life (Detection of PK in rats; iv, 0.4 mg/Kg)	AUC(0-inf) (Detection of PK in rats; po, p.o. (gavage), 1 mg/Kg)	AUC(0-t) (Detection of PK in rats; po, p.o. (gavage), 1 mg/Kg)	Cmax (Detection of PK in rats; po, p.o. (gavage), 1 mg/Kg)	half-life (Detection of PK in rats; po, p.o. (gavage), 1 mg/Kg)	Eosinophilic granulocyte C (10^5/ml) [1]	Eosinophilic granulocyte Inhibition rate [1]	The total number of white blood cells [1]	Eosinophilic granulocyte Inhibition ratio [5]	Eosinophilic granulocyte Number (×10^5/mL) [5]	Total number of white cells (×10^5/mL) [5]	inhibitory effects on the total number of white blood cells and the number of eosinophilic granulocytes [1]	also measured
Cc1c(Cc2ccc3ccccc3n2)c2cc(F)ccc2n1CC(=O)O [OC000459, reference compound]	–	–	–	–	–	–	–	–	–	0.1192 ± 0.03^## 10^5/ml	70.77%	2.427 ± 0.25	–	–	–	–	–
Cc1c(C2CCN(S(=O)(=O)c3ccc(F)cc3)CC2)c2cc(F)ccc2n1CC(=O)O [Crystalline form I, 2-(5-fluoro-3-(1-((4-fluorophenyl)sulfonyl)piperidin-4-yl)-2-methyl-1H-indol-1-yl)acetic acid]	–	–	–	–	–	–	–	–	–	–	–	–	–	–	–	–	Weigh increase rate % under RH 80% ([2]; RH 80%): 0.293%; Weigh increase rate % under RH 95% ([2]; RH 95%): 0.499%
Cc1c(C2CCC(NS(=O)(=O)c3ccc(F)cc3)CC2)c2cc(F)ccc2n1CC(=O)O (single isomer, unassigned) [Example 27b, 2-(5-fluoro-3-(4-(4-fluorophenylsulfonamido)cyclohexyl)-2-methyl-1H-indol-1-yl)acetic acid]	57.3 nM	920 ng·h/mL	883 ng·h/mL	802 ng/mL	1.58 h	1640 ng·h/mL	1600 ng·h/mL	631 ng/mL	1.33 h	0.09597 ± 0.04^## 10^5/ml	76.76%	1.986 ± 0.28	38.55%	142.17 ×10^5/mL	277.800 ×10^5/mL	stronger than those of OC000459	–
Cc1c(C2CCC(NC(=O)c3ccc4ccccc4n3)CC2)c2cc(F)ccc2n1CC(=O)O.Cl (single isomer, unassigned) [Example 6a, 2-(5-fluoro-2-methyl-3-(4-(quinoline-2-carboxamido)cyclohexyl)-1H-indol-1-yl)acetic acid hydrochloride]	200 nM	2780 ng·h/mL	2680 ng·h/mL	2020 ng/mL	1.57 h	5940 ng·h/mL	5670 ng·h/mL	2110 ng/mL	2.86 h	0.0568 ± 0.02^## 10^5/ml	86.85%	1.634 ± 0.30	33%	153.75 ×10^5/mL	247.350 ×10^5/mL	stronger than those of OC000459	–
Cc1c(C2CCC(NC(=O)c3cccc4ncccc34)CC2)c2cc(F)ccc2n1CC(=O)O (single isomer, unassigned) [Example 26b, 2-(5-fluoro-2-methyl-3-(4-(quinoline-5-carboxamido)cyclohexyl)-1H-indol-1-yl)acetic acid hydrochloride]	83.9 nM	–	–	–	–	–	–	–	–	–	–	–	–	–	–	–	–

Second part, led by results:

IC50 (CRTH2 receptor)	AUC(0-inf) (Detection of PK in rats; iv, 0.4 mg/Kg)	AUC(0-t) (Detection of PK in rats; iv, 0.4 mg/Kg)	Cmax (Detection of PK in rats; iv, 0.4 mg/Kg)	half-life (Detection of PK in rats; iv, 0.4 mg/Kg)	AUC(0-inf) (Detection of PK in rats; po, p.o. (gavage), 1 mg/Kg)	AUC(0-t) (Detection of PK in rats; po, p.o. (gavage), 1 mg/Kg)	Cmax (Detection of PK in rats; po, p.o. (gavage), 1 mg/Kg)	half-life (Detection of PK in rats; po, p.o. (gavage), 1 mg/Kg)	Compound	Eosinophilic granulocyte C (10^5/ml) [1]	Eosinophilic granulocyte Inhibition rate [1]	The total number of white blood cells [1]	Eosinophilic granulocyte Inhibition ratio [5]	Eosinophilic granulocyte Number (×10^5/mL) [5]	Total number of white cells (×10^5/mL) [5]	inhibitory effects on the total number of white blood cells and the number of eosinophilic granulocytes [1]	also measured
80.4 nM	2500 ng·h/mL	2440 ng·h/mL	1300 ng/mL	4.5 h	4270 ng·h/mL	4090 ng·h/mL	1960 ng/mL	4.52 h	Cc1c(C2CCN(S(=O)(=O)c3ccc(F)cc3F)CC2)c2cc(F)ccc2n1CC(=O)O [Example 33, 2-(5-fluoro-3-(1-((2,4-difluorophenyl)sulfonyl)piperidin-4-yl)-2-methyl-1H-indol-1-yl)acetic acid]	–	–	–	–	–	–	–	–
148 nM	1030 ng·h/mL	991 ng·h/mL	757 ng/mL	3.4 h	1890 ng·h/mL	1710 ng·h/mL	393 ng/mL	4.37 h	Cc1c(C2CCN(S(=O)(=O)c3ccc(F)cc3)CC2)c2cc(F)ccc2n1CC(=O)O [Example 24, 2-(5-fluoro-3-(1-((4-fluorophenyl)sulfonyl)piperidin-4-yl)-2-methyl-1H-indol-1-yl)acetic acid]	0.0804 ± 0.02^## 10^5/ml	80.77%	1.881 ± 0.26	36.8%	145.82 ×10^5/mL	272.775 ×10^5/mL	stronger than those of OC000459	CLint scaled [3, 8]: 13.8 mL/min/kg; half-life [3, 9]: 3 h; CLint scaled [4, 8]: 1.37 mL/min/kg; half-life [4, 9]: 42.1 h; AUC(0-inf) ([6]; iv, 0.4 mg/Kg): 5500 ng·h/mL; AUC(0-t) ([6]; iv, 0.4 mg/Kg): 5400 ng·h/mL; Cmax ([6]; iv, 0.4 mg/Kg): 3210 ng/mL; half-life ([6]; iv, 0.4 mg/Kg): 4.72 h; AUC(0-inf) ([6]; po, p.o. (gavage), 1 mg/Kg): 6920 ng·h/mL; AUC(0-t) ([6]; po, p.o. (gavage), 1 mg/Kg): 6600 ng·h/mL; Cmax ([6]; po, p.o. (gavage), 1 mg/Kg): 1160 ng/mL; half-life ([6]; po, p.o. (gavage), 1 mg/Kg): 10.8 h; CLint scaled [7, 8]: 2.55 mL/min/kg; half-life [7, 9]: 11.4 h
